# Measured values from patent US10509046B2, “Detection of indazole synthetic cannabinoids” (Randox Laboratories Limited, priority 2014, dated 2019).
# Counter-ions that a name gives are not always drawn.
# Key:
# [1] = tested on: Antibody to AB-Pinaca-KLH (raised against immunogen 2 of Example 6); assay: Competitive ELISA characterising antibodies to AB-Pinaca-KLH with Tracer-1 (Example 9); type: binding; conditions: for % CR (percentage cross-reactivity): AB-Pinaca = 100.00; for IC50 (standard concentration which produces 50% inhibition of maximal signal): calibration curves 0-20 ng/ml
# Experimental: The wells of an enhanced binding 96 well polystyrene microtitre plate were coated with IgG fraction of antiserum raised to AB-Pinaca-KLH (Immunogen 2 of Example 6), diluted in 10 mM Tris, pH8.5 (125 μl/well). The appropriate antibody coating dilution was determined using standard ELISA checkerboard techniques. The plate was incubated for 2 hours at 37° C., washed 4 times over 10 minutes with Tris buffered saline containing Tween 20 (TBST) and tapped dry. Standard solutions of AB-Pinaca pentanoic acid were prepared in TBST at 0, 0.31, 0.63, 1.25, 2.50, 5.0, 10.0 and 20.0 ng/ml, and 50 μl of each was added to the appropriate wells. 75 μl of Tracer-1 (Example 7) diluted in Tris buffer (pH 7.2) containing EDTA, D-mannitol, sucrose, thimerosal and BSA, was added to each of the wells. The appropriate dilution of tracer was also determined using standard ELISA checkerboard techniques. The plate was incubated at 25° C. for 1 hour. Excess unbound tracer was removed by washing 6 times over a 10-15 minute period with TBST and tapped dry. 125 μl of tetramethylbenzidine (TMB) substrate solution was added to each well of the plate that was then incubated for 20 minutes in the dark at room temperature. The reaction was terminated by addition of 125 μl 0.2 M H2SO4 to each well. The absorbance was measured at 450 nm using a microtitre plate reader. In order to determine the specificity of the competitive ELISAs, standard solutions of a range of structurally similar compounds were prepared in TBST. Using calibration curves generated from these compounds (0-20 ng/ml), the cross-reactivity was determined.
# [2] = tested on: AB-PINACA antibody (raised against immunogen 2 of Example 6); assay: AB-PINACA ELISA, final validated kit with Tracer-2 (Example 10), specificity; type: binding; conditions: for % Cross-Reactivity: AB-PINACA N-Pentanoic acid = 100
# Experimental: A microtitre plates was precoated with AB-PINACA antibody (raised against immunogen 2 of Example 6). Pinaca derivative (antigen), if present in the sample competes with the horseradish peroxidase labelled AB-PINACA (enzyme labelled antigen, herein Tracer-2 of Example 8) for a limited number of antibody sites on the microtitre plate. After incubation at room temperature to allow a competition reaction to take place, the microtitre plate was washed to remove excess reagents. The enzyme substrate ([…]) was added. After an incubation period to allow maximum colour development, the colour reaction was stopped by the addition of acid. This produces a colour change from blue to yellow, and the absorbances are read at 450 nm. A standard curve was then constructed to determine the Pinaca derivative's concentration in the sample.
# All reagents were left to reach room temperature (+15 to +25° C.) prior to use. In order to minimise edge effects microtitre plate was sealed with an adhesive plate sealer.
# The assay was performed in duplicate. The following layout was used for a test plate where each box represents 2 wells.
# • a) The following was pipetted into the appropriate wells of the microtitre plate:
# • b) The microtitre plate was gently tapped plate from side to side for a few seconds. • c) The microtitre plate was covered with a plate sealer before incubating for 30 minutes at room temperature (+15 to +25° C.) in the dark. • d) The plate was inverted and the liquid was tapped out. • e) The plate was washed 6 times with diluted wash buffer (ensuring all wells were filled), over a 10-15 minute period. After the final wash the liquid was discarded and the plate was tapped onto lint free tissue paper until completely dry. • f) Immediately after washing, 125 μL of the one shot substrate II solution was pipetted into each well using a multichannel pipette. The microtitre plate was gently tapped from side to side and incubated for (20±2 minutes) at room temperature (+15 to +25° C.) in the dark. • g) The colour reaction was stopped by the addition of 100 μL of stop solution per well. A colour change from blue to yellow should be evident. • h) The optical density was measured at 450 nm within 10 minutes of stopping the colour reaction. The use of a 630 nm filter is recommended as the reference wavelength, if available. Standard Curve and Interpretation of Results • a) The mean absorbance of the standards, controls and samples were calculated. • b) The absorbances of standards against log10 (standard concentration) were plotted. • c) The control and sample concentrations were read from the standard curve. • d) To obtain concentrations for urine samples in ng/mL, the results were multiplied by 3 to take into account the dilution factor. • e) To obtain concentrations for whole blood samples in ng/mL, the results were multiplied by 4 to take into account the dilution factor. • f) It is recommended that a 4 parameter curve fit method is used when generating the standard curve. Limits of Detection
SMILES,% CR (percentage cross-reactivity) [1] [%],IC50 (standard concentration which produces 50% inhibition of maximal signal) [1] [ng/mL],B/Bo (Percentage B/B0) ([1]; standard conc 0.31 ng/ml) [%],OD (absorbance at 450 nm) ([1]; standard conc 0.31 ng/ml),B/Bo (Percentage B/B0) ([1]; standard conc 0.63 ng/ml) [%],OD (absorbance at 450 nm) ([1]; standard conc 0.63 ng/ml),B/Bo (Percentage B/B0) ([1]; standard conc 1.25 ng/ml) [%],OD (absorbance at 450 nm) ([1]; standard conc 1.25 ng/ml),B/Bo (Percentage B/B0) ([1]; standard conc 2.50 ng/ml) [%],OD (absorbance at 450 nm) ([1]; standard conc 2.50 ng/ml),B/Bo (Percentage B/B0) ([1]; standard conc 5.00 ng/ml) [%],OD (absorbance at 450 nm) ([1]; standard conc 5.00 ng/ml),B/Bo (Percentage B/B0) ([1]; standard conc 10.00 ng/ml) [%],OD (absorbance at 450 nm) ([1]; standard conc 10.00 ng/ml),B/Bo (Percentage B/B0) ([1]; standard conc 20.00 ng/ml) [%],OD (absorbance at 450 nm) ([1]; standard conc 20.00 ng/ml),% Cross-Reactivity [2] [%],Concentration of compounds that elicit a negative response at the indicated concentration [2] [ng/mL]
"CC(C)C(NC(=O)c1nn(CCCCCO)c2ccccc12)C(N)=O (stereo not shown) [1-(5-OHpentyl) AB-Pinaca, 1-(5-hydroxypentyl) AB-Pinaca]",124.80,0.887,68.9,1.415,56.6,1.163,43.6,0.896,33.6,0.690,24.5,0.504,17.3,0.356,11.8,0.242,83.8,–
"CC(C)C(NC(=O)c1nn(CCCCCF)c2ccccc12)C(N)=O (stereo not shown) [5-fluoro AB-Pinaca, 5-fluoropentyl AB-Pinaca]",203.49,0.544,60.2,1.351,47.7,1.070,36.5,0.819,28.0,0.629,20.6,0.462,14.5,0.326,10.1,0.227,98.9,–
"CC(C)C(NC(=O)c1nn(Cc2ccc(F)cc2)c2ccccc12)C(N)=O (stereo not shown) [AB-Fubinaca, N-(1-amino-3-methyl-1-oxobutan-2-yl)-1-(4-fluorobenzyl)-1H-indazole-3-carboxamide]",71.60,1.546,72.0,1.541,64.4,1.379,52.3,1.120,42.7,0.915,32.4,0.695,22.9,0.491,15.7,0.337,35.3,–
CC(C)C(NC(=O)c1nn(CCCCC(=O)O)c2ccccc12)C(N)=O (stereo not shown) [AB-Pinaca pentanoic acid],64.25,1.723,77.4,1.698,69.7,1.529,55.8,1.223,42.2,0.926,30.7,0.673,21.2,0.465,14.5,0.317,100,–
"CCCCCn1nc(C(=O)NC(C(N)=O)C(C)C)c2ccccc21 (stereo not shown) [AB-Pinaca, N-(1-amino-3-methyl-1-oxobutan-2-yl)-1-pentyl-1H-indazole-3-carboxamide]",100.00,1.107,70.1,1.532,60.7,1.325,47.4,1.036,35.6,0.778,27.2,0.593,18.5,0.404,12.2,0.267,52.4,–
CCCCCn1cc(C(=O)c2ccc(OC)cc2)c2ccccc21 [RCS-4],–,–,–,–,–,–,–,–,–,–,–,–,–,–,–,–,<1,–
COc1ccccc1CC(=O)c1cn(CCC2CCCCC2)c2ccccc12 [RCS-8],–,–,–,–,–,–,–,–,–,–,–,–,–,–,–,–,–,100
CNC(=C[N+](=O)[O-])NCCSCc1ccc(CN(C)C)o1 [Ranitidine HCl],–,–,–,–,–,–,–,–,–,–,–,–,–,–,–,–,–,10000
O=C(O)CCCCn1cc(C(=O)NC23CC4CC(CC(C4)C2)C3)c2ccccc21 [SDB-001 N-Pentanoic acid],–,–,–,–,–,–,–,–,–,–,–,–,–,–,–,–,<1,–
O=C(NC12CC3CC(CC(C3)C1)C2)c1cn(CCCCCF)c2ccccc12 [STS-135],–,–,–,–,–,–,–,–,–,–,–,–,–,–,–,–,–,100
O=C(c1cccc2ccccc12)c1nn(CCCCCF)c2ccccc12 [THJ 2201],–,–,–,–,–,–,–,–,–,–,–,–,–,–,–,–,–,100
CC1(C)C(C(=O)c2cn(CCCCC(=O)O)c3ccccc23)C1(C)C [UR-144 N-Pentanoic acid],–,–,–,–,–,–,–,–,–,–,–,–,–,–,–,–,–,100
CCCCCn1cc(C(=O)C2C(C)(C)C2(C)C)c2ccccc21 [UR-144],–,–,–,–,–,–,–,–,–,–,–,–,–,–,–,–,–,100
CC1(C)C(C(=O)c2cn(CCCCCF)c3ccccc23)C1(C)C [XLR-11],–,–,–,–,–,–,–,–,–,–,–,–,–,–,–,–,–,100
